In patent publication US9987276B2 (Celgene CAR LLC, priority 2008, dated 2018) one finds IC50 data, which are given here for 24 molecules.

Each structure is given as a SMILES string. Where two headings read alike, the source gives them in different places.

The target of assay [1] is T1, BTK (Homo sapiens (Human), UniProt Q06187). The assay is described as follows: BTK Ramos cellular assay (PLCγ2 phosphorylation). The class given is cell-based. The conditions noted are these: Ramos cells, 1 hour compound, anti-IgM stimulation, p-PLCγ2; read-out: BTK Inhibition (IC50), BTK Ramos cellular inhibition. How it is done: Ramos cells were grown in suspension in T225 flasks, spun down, resuspended in 50 ml serum-free media and incubated for 1 hour. […] Ramos cells were incubated with compound for 1 hour, washed again and resuspended in 100 ul serum-free media. Cells were then stimulated with 1 μg of goat F(ab′)2 Anti-Human IgM and incubated on ice for 10 minutes to activate B cell receptor signaling pathways. After 10 minutes, the cells were washed once with PBS and then lysed on ice with Invitrogen Cell Extraction buffer. 16 μg total protein from lysates were loaded on gel and blots were probed for phosphorylation of the BTK substrate PLCγ2.

Another assay has as its target ITK (Homo sapiens (Human), UniProt Q08881). Description: Omnia assay for potency assessment against active forms of ITK kinase. In kind it is biochemical. The settings on record: [ITK]=10 nM, [ATP]=25, [Y6-Sox]=10 μM; read-out: ITK Inhibition. How it is done:
[ITK]=10 nM, [ATP]=25 [Y6-Sox]=10 μM (ATP KMapp=33 μM).

Assay [2] has as its target T1, BTK. The assay is described as follows: Omnia assay for potency assessment against BTK. In kind it is biochemical. The conditions noted are these: [BTK]=5 nM, Omnia assay; read-out: BTK Inhibition (IC50). How it is done:
The modified BTK-optimized reagent conditions for the above protocol are:
[BTK]=5 nM, [ATP]=[…], [Y5-Sox]=[…] (ATP KMapp˜[…]).

A further assay deals with EGFR-WT (Homo sapiens (Human), UniProt P00533). Description: Omnia assay for potency assessment against EGFR (WT).
Setting [3] is: read-out: EGFR (wild type inhibition), EGFR wild type.

Chain of ITK (Q08881 whole entry): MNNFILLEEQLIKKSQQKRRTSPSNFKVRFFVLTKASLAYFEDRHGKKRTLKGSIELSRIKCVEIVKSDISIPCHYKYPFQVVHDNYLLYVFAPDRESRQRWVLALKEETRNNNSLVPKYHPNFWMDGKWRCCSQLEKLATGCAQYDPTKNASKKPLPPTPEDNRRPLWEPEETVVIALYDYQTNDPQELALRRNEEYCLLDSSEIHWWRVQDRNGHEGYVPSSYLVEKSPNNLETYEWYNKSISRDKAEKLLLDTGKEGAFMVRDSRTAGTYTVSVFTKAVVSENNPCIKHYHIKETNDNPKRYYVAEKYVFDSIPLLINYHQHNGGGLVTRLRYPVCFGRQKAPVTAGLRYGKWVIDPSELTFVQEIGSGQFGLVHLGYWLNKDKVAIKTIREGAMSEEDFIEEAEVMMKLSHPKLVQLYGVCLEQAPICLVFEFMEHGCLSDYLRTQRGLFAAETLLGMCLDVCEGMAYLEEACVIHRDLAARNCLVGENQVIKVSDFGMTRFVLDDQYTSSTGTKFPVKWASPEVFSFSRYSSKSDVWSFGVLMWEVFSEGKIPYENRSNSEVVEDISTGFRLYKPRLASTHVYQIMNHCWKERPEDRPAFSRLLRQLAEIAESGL
T1 sequence (Q06187 whole entry): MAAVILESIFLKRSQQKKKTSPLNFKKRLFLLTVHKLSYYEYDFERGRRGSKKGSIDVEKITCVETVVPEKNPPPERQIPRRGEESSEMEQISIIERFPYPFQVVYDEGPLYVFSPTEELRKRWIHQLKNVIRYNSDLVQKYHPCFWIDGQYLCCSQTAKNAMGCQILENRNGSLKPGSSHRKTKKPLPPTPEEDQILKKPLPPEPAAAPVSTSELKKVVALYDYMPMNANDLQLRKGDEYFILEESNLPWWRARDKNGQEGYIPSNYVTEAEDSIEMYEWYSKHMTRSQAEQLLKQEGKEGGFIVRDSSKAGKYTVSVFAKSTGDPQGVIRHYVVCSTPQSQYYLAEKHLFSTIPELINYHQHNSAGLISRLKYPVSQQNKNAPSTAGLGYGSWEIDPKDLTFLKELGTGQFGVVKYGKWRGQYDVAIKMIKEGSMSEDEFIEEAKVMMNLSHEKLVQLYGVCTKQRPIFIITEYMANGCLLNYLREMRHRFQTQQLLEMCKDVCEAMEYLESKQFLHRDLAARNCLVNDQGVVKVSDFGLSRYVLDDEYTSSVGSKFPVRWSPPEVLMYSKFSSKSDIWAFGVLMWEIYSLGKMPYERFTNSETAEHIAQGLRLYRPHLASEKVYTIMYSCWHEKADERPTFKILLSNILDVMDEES
Chain of EGFR-WT (P00533 668-1210): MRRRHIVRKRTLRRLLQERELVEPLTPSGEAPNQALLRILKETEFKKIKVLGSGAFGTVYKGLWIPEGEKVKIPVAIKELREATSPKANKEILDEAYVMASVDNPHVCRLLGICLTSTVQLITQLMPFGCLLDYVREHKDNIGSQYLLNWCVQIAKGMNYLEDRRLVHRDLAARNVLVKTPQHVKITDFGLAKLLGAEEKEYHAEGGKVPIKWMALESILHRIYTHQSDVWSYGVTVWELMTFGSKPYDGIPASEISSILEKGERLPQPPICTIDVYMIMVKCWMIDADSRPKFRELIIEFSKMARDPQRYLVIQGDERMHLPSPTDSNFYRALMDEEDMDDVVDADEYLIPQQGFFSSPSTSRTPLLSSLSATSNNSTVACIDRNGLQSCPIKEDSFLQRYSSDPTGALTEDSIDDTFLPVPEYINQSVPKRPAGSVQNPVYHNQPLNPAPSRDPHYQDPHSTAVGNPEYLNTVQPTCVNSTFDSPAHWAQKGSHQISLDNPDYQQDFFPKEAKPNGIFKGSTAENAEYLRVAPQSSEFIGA

Turning to `C=CC(=O)N1CCOc2ccc(Nc3nc(Nc4ccc(N5CCOCC5)cc4)ncc3C(C)=O)cc21` [Compound I-169, 1-{6-[5-Acetyl-2-(4-morpholin-4-yl-phenylamino)-pyrimidin-4-ylamino]-2,3-dihydro-benzo[1,4]oxazin-4-yl}-propenone], the IC50 on BTK [1], at ITK, at BTK [2] and at EGFR-WT (setting [3]) was below 10 nM each time.
In the case of `C=CC(=O)Nc1cccc(Nc2nc(Nc3ccc(OC(C)C)nc3)ncc2F)c1` [Compound I-172, N-(3-(5-fluoro-2-(6-isopropoxypyridin-3-ylamino)pyrimidin-4-ylamino)phenyl)acrylamide], the IC50 on BTK [1] is below 10 nM; at ITK, 10 to 100 nM; on BTK [2], below 10 nM; against EGFR-WT, 100 to 1000 nM.
As to `C=CC(=O)Nc1cccc(Nc2nc(Nc3ccc(OC)nc3)ncc2C#N)c1` [Compound I-173, N-(3-(5-cyano-2-(6-methoxypyridin-3-ylamino)pyrimidin-4-ylamino)phenyl)acrylamide], the IC50 at BTK [1], on ITK, on BTK [2] and on EGFR-WT (setting [3]) was below 10 nM in each case.
Take `C=CC(=O)Nc1cccc(Nc2nc(Nc3ccc4c(c3)NCCO4)ncc2F)c1` [Compound I-174]: the IC50 on BTK [1], at ITK, on BTK [2] and on EGFR-WT (setting [3]) was below 10 nM in each case.
Regarding `C=C(C)C(=O)c1ccc(Nc2nc(Nc3ccccc3)ncc2F)cc1` [Compound I-185, 1-(4-(5-fluoro-2-(phenylamino)pyrimidin-4-ylamino)phenyl)-2-methylprop-2-en-1-one], the IC50 on BTK [1] is 100 to 1000 nM; on ITK it was below 10 nM; on BTK [2], below 10 nM; against EGFR-WT it was 10 to 100 nM.
Regarding `C=CC(=O)Nc1cccc(Oc2nc(Nc3ccc(OC)nc3)ncc2C)c1` [Compound I-186, N-(3-(2-(6-methoxypyridin-3-ylamino)-5-methylpyrimidin-4-yloxy)phenyl)acrylamide], the IC50 on BTK [1], on ITK, on BTK [2] and at EGFR-WT (setting [3]) was below 10 nM throughout.
Turning to `C=CC(=O)Nc1cccc(Oc2nc(Nc3ccc(OC)nc3)ncc2C(C)=O)c1` [Compound I-188, N-{3-[5-Acetyl-2-(6-methoxy-pyridin-3-ylamino)-pyrimidin-4-yloxy]-phenyl}-acrylamide], the IC50 at BTK [1], on ITK, on BTK [2] and at EGFR-WT (setting [3]) was below 10 nM each time.
With `C=CC(=O)Nc1cccc(Nc2nc(Nc3ccc(OC)nc3)ncc2C(C)=O)c1` [Compound I-189, N-{3-[5-Acetyl-2-(6-methoxy-pyridin-3-ylamino)-pyrimidin-4-ylamino]-phenyl}-acrylamide], the IC50 on BTK [1] is 10 to 100 nM; at ITK, below 10 nM; on BTK [2] it was below 10 nM; on EGFR-WT it was 10 to 100 nM.
Consider `C=CC(=O)N1CCC[C@@H](Oc2nc(Nc3cccc(OC)c3)ncc2F)C1` [Compound I-190, (R)-1-(3-(5-fluoro-2-(3-methoxyphenylamino)pyrimidin-4-yloxy)piperidin-1-yl)prop-2-en-1-one], for which the IC50 on BTK [1] is 10 to 100 nM; on ITK it was 10 to 100 nM; at BTK [2] it was below 10 nM; at EGFR-WT it was 100 to 1000 nM.
`C=CC(=O)Nc1cccc(Nc2nc(Nc3ccc(OC)nc3)ncc2OC)c1` [Compound I-192, N-(3-(5-methoxy-2-(6-methoxypyridin-3-ylamino)pyrimidin-4-ylamino)phenyl)acrylamide]: the IC50 at BTK [1] was 10 to 100 nM; on ITK, below 10 nM; on BTK [2], below 10 nM; against EGFR-WT it was 10 to 100 nM.
Turning to `C=CC(=O)N1CCOc2ccc(Nc3nc(Nc4ccc(OC)nc4)ncc3F)cc21` [Compound I-194, 1-(6-(5-fluoro-2-(6-methoxypyridin-3-ylamino)pyrimidin-4-ylamino)-2H-benzo[b][1,4]oxazin-4(3H)-yl)prop-2-en-1-one], the IC50 on BTK [1] was below 10 nM; on ITK, below 10 nM; at BTK [2], below 10 nM; on EGFR-WT, 10 to 100 nM.
`C=CC(=O)Nc1cccc(Nc2nc(Nc3ccc(OCCCNC(=O)OC(C)(C)C)cc3)ncc2F)c1` [Compound I-198, tert-butyl 3-(4-(4-(3-acrylamidophenylamino)-5-fluoropyrimidin-2-ylamino)phenoxy)propylcarbamate]: the IC50 was below 10 nM on BTK [1], 100 to 1000 nM on ITK, below 10 nM on BTK [2] and below 10 nM on EGFR-WT (setting [3]).
For the molecule `C=CC(=O)N1CCC(Nc2nc(Nc3cccc(OC)c3)ncc2F)C1` (stereo not drawn) [Compound I-201, 1-(3-(5-fluoro-2-(3-methoxyphenylamino)pyrimidin-4-ylamino)pyrrolidin-1-yl)prop-2-en-1-one], the IC50 on BTK [1] is 100 to 1000 nM; at ITK, 100 to 1000 nM; on BTK [2], below 10 nM; at EGFR-WT, 10 to 100 nM.
In the case of `C=CC(=O)N1CCC[C@@H](Nc2nc(Nc3ccc(OC)nc3)ncc2F)C1` [Compound I-202, (R)-1-(3-(5-fluoro-2-(6-methoxypyridin-3-ylamino)pyrimidin-4-ylamino)piperidin-1-yl)prop-2-en-1-one], the IC50 was 100 to 1000 nM at BTK [1], 100 to 1000 nM on ITK, below 10 nM at BTK [2] and 100 to 1000 nM against EGFR-WT.
Take `C=CC(=O)Nc1cccc(Nc2nc(Nc3cccc(OCCCN4CCOCC4)c3)ncc2F)c1` [Compound I-208, N-(3-(5-fluoro-2-(3-(3-morpholinopropoxy)phenylamino)pyrimidin-4-ylamino)phenyl)acrylamide]: the IC50 was 10 to 100 nM on BTK [1], 10 to 100 nM on ITK, below 10 nM on BTK [2] and 10 to 100 nM on EGFR-WT.
Take `C=CC(=O)Nc1cccc(Nc2nc(Nc3ccc(OC)nc3)ncc2C(N)=O)c1` [Compound I-209, 4-(3-acrylamidophenylamino)-2-(6-methoxypyridin-3-ylamino)pyrimidine-5-carboxamide]: the IC50 was 10 to 100 nM on BTK [1], below 10 nM on ITK, below 10 nM at BTK [2] and 10 to 100 nM against EGFR-WT.
`C=CC(=O)Nc1cccc(Nc2nc(Nc3cccc(OC)c3)ncc2C(N)=O)c1` [Compound I-210, 4-(3-acrylamidophenylamino)-2-(3-methoxyphenylamino)pyrimidine-5-carboxamide]: the IC50 at BTK [1] is below 10 nM; on ITK it was 10 to 100 nM; at BTK [2], below 10 nM; on EGFR-WT (setting [3]), 10 to 100 nM.
On to `C=CC(=O)Nc1cccc(Oc2nc(Nc3ccc(OC)nc3)ncc2F)c1` [Compound I-217], for which the IC50 on BTK [1] is below 10 nM; on ITK, 10 to 100 nM; at BTK [2] it was below 10 nM; on EGFR-WT, 10 to 100 nM.
As for `C=CC(=O)N(C)Cc1cccc(Nc2nc(Nc3ccccc3)ncc2C)c1` [Compound I-220, N-methyl-N-(3-(5-methyl-2-(phenylamino)pyrimidin-4-ylamino)benzyl)acrylamide], the IC50 on BTK [1] is 10 to 100 nM; at ITK it was 100 to 1000 nM; at BTK [2], below 10 nM; at EGFR-WT, 100 to 1000 nM.
Regarding `C=CC(=O)Nc1cccc(Nc2nc(Nc3cccc(OCCN(C)C)c3)ncc2F)c1` [Compound I-233, N-(3-(2-(3-(2-(dimethylamino)ethoxy)phenylamino)-5-fluoropyrimidin-4-ylamino)phenyl)acrylamide], the IC50 on BTK [1], at ITK, at BTK [2] and at EGFR-WT (setting [3]) was below 10 nM throughout.
As for `C=CC(=O)Nc1cccc(Nc2nc(Nc3ccc(Cl)c(OCC(C)(C)O)c3)ncc2F)c1` [Compound I-249, N-(3-(2-(4-chloro-3-(2-hydroxy-2-methylpropoxy)phenylamino)-5-fluoropyrimidin-4-ylamino)phenyl)acrylamide], the IC50 at BTK [1] was below 10 nM; at ITK, 100 to 1000 nM; on BTK [2], below 10 nM; at EGFR-WT it was 100 to 1000 nM.
Take `C=CC(=O)Nc1cccc(Nc2nc(Nc3ccc(OCC(C)(C)O)nc3)ncc2F)c1` [Compound I-313, N-(3-(5-fluoro-2-(6-(2-hydroxy-2-methylpropoxy)pyridin-3-ylamino)pyrimidin-4-ylamino)phenyl)acrylamide]: the IC50 at BTK [1] was below 10 nM; at ITK it was 10 to 100 nM; at BTK [2], below 10 nM; on EGFR-WT it was 10 to 100 nM.
Consider `C=CC(=O)Nc1cccc(Nc2nc(Nc3ccc(O[C@@H]4CCOC4)c(F)c3)ncc2F)c1` [Compound I-316, (R)—N-(3-(5-fluoro-2-(3-fluoro-4-(tetrahydrofuran-3-yloxy)phenylamino)pyrimidin-4-ylamino)phenyl)acrylamide], for which the IC50 is below 10 nM at BTK [1], 10 to 100 nM on ITK, below 10 nM at BTK [2] and 10 to 100 nM against EGFR-WT.
On to `C=CC(=O)Nc1cccc(Nc2nc(Nc3ccc(OCCCS(C)(=O)=O)c(F)c3)ncc2F)c1` [Compound I-318, N-(3-(5-fluoro-2-(3-fluoro-4-(3-(methylsulfonyl)propoxy)phenylamino)pyrimidin-4-ylamino)phenyl)acrylamide], for which the IC50 is below 10 nM on BTK [1], 10 to 100 nM at ITK, below 10 nM at BTK [2] and 10 to 100 nM on EGFR-WT.
